This note sets out measurements from BindingDB's records for patent US11866405 (Astrazeneca, 2024).

Usually IC50 stands for the point on the concentration scale where inhibition reaches its midpoint. Read a high IC50 as weaker potency.

The assay deals with T1, Interleukin-1 receptor-associated kinase 4 (Homo sapiens, UniProt Q9NWZ3).
T1 sequence (Q9NWZ3 whole entry): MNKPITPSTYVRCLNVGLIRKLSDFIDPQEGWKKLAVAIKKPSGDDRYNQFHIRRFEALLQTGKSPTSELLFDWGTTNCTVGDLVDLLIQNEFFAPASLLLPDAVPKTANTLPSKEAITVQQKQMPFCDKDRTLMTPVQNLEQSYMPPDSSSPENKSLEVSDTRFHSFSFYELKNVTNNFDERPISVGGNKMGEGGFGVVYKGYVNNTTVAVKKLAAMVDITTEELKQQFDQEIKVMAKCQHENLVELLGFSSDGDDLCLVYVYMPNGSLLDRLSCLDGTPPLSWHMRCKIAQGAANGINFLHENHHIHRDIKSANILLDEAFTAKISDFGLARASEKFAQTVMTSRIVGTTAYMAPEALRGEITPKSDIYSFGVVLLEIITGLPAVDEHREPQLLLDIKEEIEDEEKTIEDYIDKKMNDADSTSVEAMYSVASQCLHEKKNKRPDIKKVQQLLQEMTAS
Kind of assay: Potency of IRAK4 Inhibitor Compounds in IRAK4 Enzyme Assay. The procedure:
The inhibitory activity of compounds against IRAK4 were determined in an enzymatic assay using mass spectrometry readout. Ten point half-log compound concentration response curves, with a top concentration of 1 μM or 10 μM, were generated from 10 mM stocks of compound solubilized in DMSO using an Echo 655 (Labcyte Inc) and added to 384 well assay plates (Greiner #781280). To the assay plates, 10 μL of human recombinant IRAK4 protein (Life Technologies #PV4002) diluted to a final concentration of 0.2 nM in assay buffer (50 mM Tris-HCl pH 7.4, 10 mM MgCl, 5 mM glutathione, 0.01% BSA, 3 mM ATP) was added. The enzyme was incubated with the compounds at room temperature for 15 minutes before a peptide substrate ([…], Innovagen custom synthesis, 10 mM in DMSO) was added to each well to a final concentration of 10 μM using an Echo 655 (Labcyte Inc). After two hours at room temperature, the reaction was stopped with 90 μL of 0.4% formic acid (Merck #33015). The unphosphorylated and phosphorylated peptide were measured by LC-MS/MS on a Waters TQ-S mass spectrometer. Peaks were integrated using the TargetLynx software and the ratios between phosphorylated and unphosphorylated peptides were calculated.
For the molecule `C[C@@]1(O)CCC[C@H](n2cc3cc(C(=O)Nc4cnn5cccnc45)c(OC4CC4)cc3n2)C1` (relative stereo) [US11866405, Example 54], it took 0.6 nM to reach half-maximal inhibition (IC50).

With `COc1cc2nn([C@H]3CCC[C@H](O)[C@@H]3C)cc2cc1C(=O)Nc1cnc2cccnn12` (relative stereo) [US11866405, Example 106], the IC50 was found to be 0.6 nM.

Turning to `COc1cc2nn([C@H]3CC[C@H](N(C)C(=O)[C@@H]4CC[C@H](O)C4)CC3)cc2cc1C(=O)Nc1cnn2cccnc12` (relative stereo) [US11866405, Example 115], the IC50 came to 0.8 nM.

As for `COc1cc2nn([C@@H]3CC[C@]4(CCC(=O)N4C)C[C@H]3C)cc2cc1C(=O)Nc1cnc2cccnn12` (relative stereo; form 2) [US11866405, Example 122], inhibition was half-maximal at 0.7 nM (IC50).

Turning to `COc1cc2nn([C@H]3CC[C@H](O)C[C@@H]3C)cc2cc1C(=O)Nc1cnn2cccnc12` [US11866405, Example 40], the IC50 worked out at 6.3 nM.

On to `C[C@H]1C[C@@H](O)CC[C@@H]1n1cc2cc(C(=O)Nc3cnn4cccnc34)c(OC3CC3)cc2n1` [US11866405, Example 45], for which the IC50 is 1.4 nM.

Take `COc1cc2nn([C@H]3CC[C@H](N(C)C(=O)[C@H](C)O)CC3)cc2cc1C(=O)Nc1cnc2cccnn12` [US11866405, Example 94]: the IC50 was 0.3 nM.
